Test results reported in the NIST ThermoML archive (doi:10.1021/je4007019).

Assay: molar heat capacity at constant pressure; xn = mol fraction of the nth substance listed
Settings: Liquid, Large sample (1 g) DSC

CCCC [butane] + C
molar heat capacity at constant pressure [J/K/mol]
Settings | 118.15 K | 128.15 K | 138.15 K | 148.15 K | 158.15 K | 168.15 K | 178.15 K
5050 kPa, x2 = 0.95 | – | – | – | 62.44 | 64.49 | 67.9 | 73.38
5150 kPa, x2 = 0.6 | 76.47 | 76.37 | 77.25 | 77.85 | 78.21 | 78.34 | –
5150 kPa, x2 = 0.88 | 61.84 | 62.6 | 63.49 | 64.92 | 66.55 | 68.32 | –

C [methane] + CCC
molar heat capacity at constant pressure [J/K/mol]
Settings | 108.15 K | 118.15 K | 128.15 K | 143.15 K | 153.15 K | 163.15 K
4700 kPa, x1 = 0.81 | 59.46 | 59.69 | 60.46 | 61.47 | 62.96 | 63.63
5200 kPa, x1 = 0.82 | 59.21 | 59.52 | 60.05 | 61.36 | 62.9 | 63.97
6000 kPa, x1 = 0.81 | 57.53 | 58.6 | 59.05 | 60.8 | 62.56 | 63.41
